The record followed here is ChEMBL document CHEMBL4052676, “Anti-diabetic xanthones from the bark of Garcinia xanthochymus” (Bioorg Med Chem Lett, 2017).

Assay [1] deals with T1, Tyrosine-protein phosphatase non-receptor type 1 (Homo sapiens, UniProt P18031).
T1 sequence (P18031 whole entry): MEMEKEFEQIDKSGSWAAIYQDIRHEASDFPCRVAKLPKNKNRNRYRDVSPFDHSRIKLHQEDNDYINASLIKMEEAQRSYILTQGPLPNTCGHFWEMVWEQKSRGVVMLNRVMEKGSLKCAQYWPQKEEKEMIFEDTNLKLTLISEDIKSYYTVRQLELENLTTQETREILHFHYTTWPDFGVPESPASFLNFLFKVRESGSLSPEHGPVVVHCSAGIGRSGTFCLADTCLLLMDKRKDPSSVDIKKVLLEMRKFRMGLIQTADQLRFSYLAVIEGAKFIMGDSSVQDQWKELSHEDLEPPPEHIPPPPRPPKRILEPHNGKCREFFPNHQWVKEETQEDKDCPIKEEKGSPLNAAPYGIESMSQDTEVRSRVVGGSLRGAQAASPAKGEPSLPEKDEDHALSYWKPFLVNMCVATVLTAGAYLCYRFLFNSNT
Kind of assay: Inhibition of human recombinant PTP1B pre-incubated for 10 mins before pnitrophenyl phosphate substrate addition and measured every 30 secs for 10 mins.

The nature of assay [2]: Inhibition of Saccharomyces cerevisiae alpha-glucosidase pre-incubated for 10 mins before p-nitrophenyl […]-D-glucopyranoside substrate addition and measured every 30 secs for 35 mins post substrate addition.

Take `O=c1c2cc(O)ccc2oc2cccc(O)c12`: the concentration for half-maximal inhibition (IC50) (in general, the concentration that gives 50% inhibition) is 150 µM in assay [1] (read-out: IC50) and “Not Active” in assay [2]. On to `COc1c(O)cc2oc3cc4occc4c(O)c3c(=O)c2c1C/C=C(\C)CCC=C(C)C`, for which the IC50 came out at 55.1 µM in assay [1] (read-out: IC50) and 94.2 µM in assay [2] (read-out: IC50).

As to `C=CC(C)(C)c1cc(O)c(O)c2c(=O)c3cc4c(c(O)c3oc12)OC(C)(C)C=C4`, the half-inhibitory concentration (IC50) in assay [1] (read-out: IC50) is 49.4 µM; in assay [2], “Not Active”. For the molecule `O=c1c2cccc(O)c2oc2c(O)ccc(O)c12`, the half-maximal inhibitory concentration (IC50) in assay [1] (read-out: IC50) amounted to 148 µM; in assay [2] (read-out: IC50), 358 µM. Regarding `C=CC(C)(C)c1cc(O)c2oc3c(O)c(O)ccc3c(=O)c2c1O`, the concentration for half-maximal inhibition (IC50) in assay [1] (read-out: IC50) amounted to 53 µM; in assay [2] (read-out: IC50) it was 4.1 µM. In the case of `C=CC(C)(C)c1cc(O)c(O)c2c(=O)c3cccc(O)c3oc12`, the figures for the half-maximal inhibitory concentration (IC50) in assay [1] (read-out: IC50) and in assay [2] (read-out: IC50) were 73.2 µM and 29.8 µM, respectively.

Take `C=CC(C)(C)c1cc(O)c2oc3c(O)cccc3c(=O)c2c1O`: the IC50 result is “Not Active” in assay [1] and 85.5 µM in assay [2] (read-out: IC50). For the molecule `C[C@H]1O[C@H](O[C@H]2[C@H](O)[C@@H](O)[C@@H](O[C@H]3[C@H](O)[C@@H](O)C(O)O[C@@H]3CO)O[C@@H]2CO)[C@H](O)[C@@H](O)[C@@H]1N[C@H]1C=C(CO)[C@@H](O)[C@H](O)[C@H]1O` (stereo not given in full) [ACARBOSE], the IC50 in assay [2] (read-out: IC50) turned out to be 900 µM.

Regarding `O=c1c2cc(O)ccc2oc2ccc(O)c(O)c12`, the IC50 in assay [1] (read-out: IC50) turned out to be 120 µM; in assay [2] (read-out: IC50), 31.4 µM.

For `C=CC(C)(C)c1cc(O)c2oc3c(O)c4c(cc3c(=O)c2c1O)C=CC(C)(C)O4`, the IC50 in assay [1] (read-out: IC50) was 8 µM; in assay [2] (read-out: IC50), 36.7 µM. For the molecule `C=CC(C)(C)c1cc(O)c(O)c2c(=O)c3ccc(O)c(O)c3oc12`, the IC50 was 85.5 µM in assay [1] (read-out: IC50) and 27.5 µM in assay [2] (read-out: IC50). Consider `C=CC(C)(C)c1cc(O)c2oc3c(O)c4occc4cc3c(=O)c2c1O`, for which the 50% inhibitory concentration (IC50) in assay [1] (read-out: IC50) was determined as 26.8 µM; in assay [2] (read-out: IC50), 142 µM. The like results for `C=CC(C)(C)c1cc(O)c(O)c2c(=O)c3cc4ccoc4c(O)c3oc12` were, in that order, 45.2 µM and 134 µM.
